# Data as given in publication PMC11019635, “On-Resin Photochemical Decarboxylative Arylation of Peptides” (Organic Letters, 2023).
# Starred links: 1 amine or outer side, 2 acyl side, 3 side chain; linkers in the order of their positions; H or OH if unused. Non-standard residues stand in square brackets, D forms with d. Residues, ends and D or L forms follow the SMILES beside them. X1 = O=C([C@H](Cc1ccc2c(c1)OC(F)(F)O2)N[*:1])[*:2]; Phe(4-CF3) = N[C@@H](Cc1ccc(C(F)(F)F)cc1)C(=O)O; X2 = N#CCc1ccc(C[C@H](N[*:1])C(=O)[*:2])cc1; Phe(4-CN) = N#Cc1ccc(C[C@H](N)C(=O)O)cc1
# Target: PRMT5/MEP50 complex (Homo sapiens, UniProt O14744+Q9BQA1)
# Experiment: Competitive fluorescence polarization assay against a tracer peptide binding to the PRMT5/MEP50 complex
# Conditions: competitive FP, PRMT5/MEP50 complex; relative to peptide 46
# Excerpt: Next, we used the method to perform a small SAR study on a peptide that we previously identified as an inhibitor of PRMT5 protein–protein interactions.[37] The peptide is derived from the PRMT5 binding protein RioK1 and contains a Phe that is important for high-affinity binding. We prepared a peptide with an Asp residue installed in its place, which was protected using the 2-phenylisopropyl group to avoid aspartimide formation during peptide extension that occurred while using the allyl group.[38] The batch was split, and each portion was reacted with a different Ar–Br to rapidly generate peptides with diverse Phe analogues (Figure 3C). The prepared peptides were then tested in a competitive fluorescence polarization assay against a tracer peptide binding to the PRMT5/MEP50 complex.[37] […]
# h. Competitive Fluorescence Polarization assay
# Evaluation of peptide 42-46 was performed similar to our previously described protocol.3 As tracer, we used peptide 50 from the same report. In brief, the peptides to be tested were serially diluted in buffer (50 mM HEPES, 250 mM NaCl, 1mM TCEP, and 0.01% (v/v) Tween 20, pH 8.0) in a black 384 wells plate in a total volume of 10 μl per well. Next, a mixture of PRMT5:MEP50 complex and tracer peptide 50 in the same buffer was added so that a final protein concentration of 200 nM and final tracer concentration of 1 nM was reached. The mixture was incubated for 1 hour and read on a Tecan Spark plate reader in fluorescence polarization mode set to an excitation wavelength of 485 nm and emission wavelength of 535 nm. Data was analyzed using Graphpad Prism version 9.2.0 and curves were fitted using nonlinear regression (log(inhibitor) vs. response – variable slope (four parameters)).
# Chain of PRMT5/MEP50 complex (O14744 whole entry, species assumed): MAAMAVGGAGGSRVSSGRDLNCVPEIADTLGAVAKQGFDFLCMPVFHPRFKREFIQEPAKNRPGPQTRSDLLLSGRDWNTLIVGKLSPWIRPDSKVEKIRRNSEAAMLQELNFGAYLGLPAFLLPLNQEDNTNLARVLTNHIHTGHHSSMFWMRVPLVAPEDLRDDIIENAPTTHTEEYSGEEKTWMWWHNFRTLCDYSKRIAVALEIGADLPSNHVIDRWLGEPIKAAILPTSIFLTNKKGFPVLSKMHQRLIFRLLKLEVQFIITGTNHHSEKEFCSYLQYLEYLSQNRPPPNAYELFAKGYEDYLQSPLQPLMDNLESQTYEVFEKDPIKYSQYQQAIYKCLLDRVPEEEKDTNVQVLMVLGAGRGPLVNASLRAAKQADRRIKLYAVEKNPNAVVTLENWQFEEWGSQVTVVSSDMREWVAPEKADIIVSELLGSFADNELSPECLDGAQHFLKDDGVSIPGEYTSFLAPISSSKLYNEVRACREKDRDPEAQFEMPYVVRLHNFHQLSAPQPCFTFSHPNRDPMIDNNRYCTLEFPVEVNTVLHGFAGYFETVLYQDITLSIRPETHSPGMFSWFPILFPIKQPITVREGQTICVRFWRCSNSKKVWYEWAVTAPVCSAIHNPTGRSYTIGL
# Chain of PRMT5/MEP50 complex (Q9BQA1 whole entry partner, species assumed): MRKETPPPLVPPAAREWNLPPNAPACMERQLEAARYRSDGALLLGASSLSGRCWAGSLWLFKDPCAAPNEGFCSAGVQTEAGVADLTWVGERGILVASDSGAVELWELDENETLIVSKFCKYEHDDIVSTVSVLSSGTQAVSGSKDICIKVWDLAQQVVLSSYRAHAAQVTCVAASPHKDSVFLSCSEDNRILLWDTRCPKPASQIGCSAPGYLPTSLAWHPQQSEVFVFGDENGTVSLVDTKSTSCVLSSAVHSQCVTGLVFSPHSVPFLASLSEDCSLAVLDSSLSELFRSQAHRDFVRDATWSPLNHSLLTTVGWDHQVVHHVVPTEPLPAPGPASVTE
row,fold improvement in IC50 in comparison to the wild-type peptide 46 [fold],Molecule
1,3,CC(=O)N[C@H](C(=O)N1CCC[C@H]1C(=O)NCC(=O)N[C@@H](CCC(N)=O)C(=O)N[C@@H](Cc1ccc(C#N)cc1)C(=O)N[C@@H](CC(=O)O)C(=O)N[C@@H](CC(=O)O)C(=O)N[C@@H](C)C(=O)N[C@@H](CC(=O)O)C(N)=O)C(C)C [compound 42] (Ac-VPGQ[Phe(4-CN)]DDAD-NH2)

# Same assay, conditions: competitive FP; 200 nM PRMT5:MEP50 complex, 1 nM tracer peptide 50; 50 mM HEPES, 250 mM NaCl, 1 mM TCEP, 0.01% Tween 20, pH 8.0; 1 hour incubation; ex 485 nm / em 535 nm; four-parameter fit
row,Molecule,IC50 [µM]
1,CC(=O)N[C@H](C(=O)N1CCC[C@H]1C(=O)NCC(=O)N[C@@H](CCC(N)=O)C(=O)N[C@@H](Cc1ccc(C#N)cc1)C(=O)N[C@@H](CC(=O)O)C(=O)N[C@@H](CC(=O)O)C(=O)N[C@@H](C)C(=O)N[C@@H](CC(=O)O)C(N)=O)C(C)C [compound 42] (Ac-VPGQ[Phe(4-CN)]DDAD-NH2),0.56 ± 0.15
2,CC(=O)N[C@H](C(=O)N1CCC[C@H]1C(=O)NCC(=O)N[C@@H](CCC(N)=O)C(=O)N[C@@H](Cc1ccc(CC#N)cc1)C(=O)N[C@@H](CC(=O)O)C(=O)N[C@@H](CC(=O)O)C(=O)N[C@@H](C)C(=O)N[C@@H](CC(=O)O)C(N)=O)C(C)C [compound 43] (Ac-VPGQ[X2]DDAD-NH2),14.6 ± 6.37
3,CC(=O)N[C@H](C(=O)N1CCC[C@H]1C(=O)NCC(=O)N[C@@H](CCC(N)=O)C(=O)N[C@@H](Cc1ccc(C(F)(F)F)cc1)C(=O)N[C@@H](CC(=O)O)C(=O)N[C@@H](CC(=O)O)C(=O)N[C@@H](C)C(=O)N[C@@H](CC(=O)O)C(N)=O)C(C)C [compound 44] (Ac-VPGQ[Phe(4-CF3)]DDAD-NH2),6.74 ± 3.23

# Next, values leading:
row,IC50 [µM],Molecule
1,17.1 ± 8.05,CC(=O)N[C@H](C(=O)N1CCC[C@H]1C(=O)NCC(=O)N[C@@H](CCC(N)=O)C(=O)N[C@@H](Cc1ccc2c(c1)OC(F)(F)O2)C(=O)N[C@@H](CC(=O)O)C(=O)N[C@@H](CC(=O)O)C(=O)N[C@@H](C)C(=O)N[C@@H](CC(=O)O)C(N)=O)C(C)C [compound 45] (Ac-VPGQ[X1]DDAD-NH2)
2,1.71 ± 0.59,"Ac-VPGQFDDAD-NH2 [compound 46, reference compound]"
